From ChEMBL document CHEMBL1130974, “High affinity phenylglycinol-based NK1 receptor antagonists” (Bioorg Med Chem Lett, 1998)

Tests used:
[1] = molecular target: Substance-P receptor (Homo sapiens, UniProt P25103); experiment: Affinity towards hNK1 receptor by displacement of [125I]- Substance P from hNK1 receptor expressed in CHO cells; format: cell-based
[2] = molecular target: T1, Neuromedin-K receptor (Homo sapiens, UniProt P29371); experiment: Binding affinity for Tachykinin receptor 3
T1 sequence (P29371 whole entry): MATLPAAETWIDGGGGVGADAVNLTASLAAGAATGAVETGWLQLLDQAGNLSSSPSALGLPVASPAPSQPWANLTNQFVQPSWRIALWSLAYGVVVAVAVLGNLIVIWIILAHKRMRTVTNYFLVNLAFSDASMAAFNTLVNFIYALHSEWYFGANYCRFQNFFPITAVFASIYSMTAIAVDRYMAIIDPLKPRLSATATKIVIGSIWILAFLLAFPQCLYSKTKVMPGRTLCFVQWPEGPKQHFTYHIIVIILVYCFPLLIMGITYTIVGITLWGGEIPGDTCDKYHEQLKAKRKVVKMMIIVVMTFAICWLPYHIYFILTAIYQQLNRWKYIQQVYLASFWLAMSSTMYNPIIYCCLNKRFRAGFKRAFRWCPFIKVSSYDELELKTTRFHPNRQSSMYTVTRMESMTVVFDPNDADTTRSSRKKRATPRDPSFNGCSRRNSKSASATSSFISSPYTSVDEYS

[3] = Oral bioavailability; format: ADME, organism-based; conditions: rat, in vivo
[4] = Plasma elimination half-life was determined; format: ADME, organism-based; conditions: rat
[5] = molecular target: T2, Substance-K receptor (Homo sapiens, UniProt P21452); experiment: Binding affinity for Tachykinin receptor 2
T2 sequence (P21452 whole entry): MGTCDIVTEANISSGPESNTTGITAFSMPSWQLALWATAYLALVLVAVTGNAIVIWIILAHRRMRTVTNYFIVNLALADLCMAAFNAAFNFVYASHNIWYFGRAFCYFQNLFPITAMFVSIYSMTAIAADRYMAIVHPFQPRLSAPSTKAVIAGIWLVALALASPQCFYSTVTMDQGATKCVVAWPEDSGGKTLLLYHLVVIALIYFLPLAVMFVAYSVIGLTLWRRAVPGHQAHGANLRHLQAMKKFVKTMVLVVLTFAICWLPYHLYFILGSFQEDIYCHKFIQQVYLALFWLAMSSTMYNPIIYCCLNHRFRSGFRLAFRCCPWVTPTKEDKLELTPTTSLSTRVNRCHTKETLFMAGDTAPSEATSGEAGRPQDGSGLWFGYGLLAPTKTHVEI

[6] = Maximal plasma drug concentration was determined; format: ADME, organism-based; conditions: rat
[7] = Low affinity binding to calcium channel
[8] = Tmax was determined; format: ADME, organism-based; conditions: rat, in vivo
[9] = Steady state volume of distribution dosing at 3 mg/kg iv; format: ADME, organism-based; set-up: dose 3 mg/kg, route intravenous; conditions: rat, in vivo

Sequence of Substance-P receptor (P25103 whole entry): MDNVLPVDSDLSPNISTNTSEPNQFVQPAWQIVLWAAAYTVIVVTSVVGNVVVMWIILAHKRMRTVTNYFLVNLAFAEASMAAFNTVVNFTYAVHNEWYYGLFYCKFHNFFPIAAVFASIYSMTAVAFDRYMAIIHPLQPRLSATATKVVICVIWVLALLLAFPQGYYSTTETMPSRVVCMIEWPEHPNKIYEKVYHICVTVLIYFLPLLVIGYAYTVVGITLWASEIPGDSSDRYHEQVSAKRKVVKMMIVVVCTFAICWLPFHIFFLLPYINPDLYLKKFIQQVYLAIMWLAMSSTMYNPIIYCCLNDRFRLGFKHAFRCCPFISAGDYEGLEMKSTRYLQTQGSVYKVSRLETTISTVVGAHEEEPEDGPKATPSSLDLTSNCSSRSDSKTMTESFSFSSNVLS

| SMILES | IC50 [1] | further results |
| --- | --- | --- |
| Cn1nnc(CN[C@H](COCc2cc(C(F)(F)F)cc(C(F)(F)F)c2)c2ccccc2)n1 | 0.015 µM | – |
| Cn1nnnc1CN[C@H](COCc1cc(C(F)(F)F)cc(C(F)(F)F)c1)c1ccccc1 | 0.01 µM | – |
| CN(Cc1n[nH]c(O)n1)[C@H](COCc1cc(C(F)(F)F)cc(C(F)(F)F)c1)c1ccccc1 | 0.00043 µM | IC50 [2]: > 1 µM; bioavailability [3]: 16%; half-life [4]: 48 min; IC50 [5]: > 1 µM; Cmax [6]: 0.097 µg/mL; IC50 [7]: > 1000 µM; Tmax [8]: 30 min; Vd [9]: 3.5 L/kg |
| Cc1cc(Cl)cc(COC[C@H](c2ccccc2)N(C)Cc2n[nH]c(O)n2)c1 | 0.0022 µM | – |
| CN(Cc1nc[nH]n1)[C@H](COCc1cc(C(F)(F)F)cc(C(F)(F)F)c1)c1ccccc1 | 0.0014 µM | – |
| Cc1cc(COC[C@H](c2ccccc2)N(C)Cc2n[nH]c(=O)[nH]2)cc(C(C)(C)C)c1 | 0.00042 µM | – |
| CN(Cc1nn[nH]n1)[C@H](COCc1cc(C(F)(F)F)cc(C(F)(F)F)c1)c1ccccc1 | 0.07 µM | – |
| CN(Cc1nnnn1C)[C@H](COCc1cc(C(F)(F)F)cc(C(F)(F)F)c1)c1ccccc1 | 0.013 µM | – |
| CCN(Cc1n[nH]c(O)n1)[C@H](COCc1cc(C(F)(F)F)cc(C(F)(F)F)c1)c1ccccc1 | 0.0008 µM | – |
| CN(Cc1n[nH]c(O)n1)[C@H](COCc1cc(Cl)cc(Cl)c1)c1ccccc1 | 0.0015 µM | – |
| FC(F)(F)c1cc(COC[C@@H](NCc2nnc[nH]2)c2ccccc2)cc(C(F)(F)F)c1 | 0.005 µM | – |
| O=c1[nH]nc(CN[C@H](COCc2cc(C(F)(F)F)cc(C(F)(F)F)c2)c2ccccc2)[nH]1 | 0.0024 µM | – |
| CN(Cc1nnn(C)n1)[C@H](COCc1cc(C(F)(F)F)cc(C(F)(F)F)c1)c1ccccc1 | 0.016 µM | – |
| CCCN(Cc1n[nH]c(O)n1)[C@H](COCc1cc(C(F)(F)F)cc(C(F)(F)F)c1)c1ccccc1 | 0.002 µM | – |
| FC(F)(F)c1cc(COC[C@@H](NCc2nn[nH]n2)c2ccccc2)cc(C(F)(F)F)c1 | 0.023 µM | – |
